Experimental data from paper PMC11275057, “Biochemical and Functional Profiling of Thioredoxin-Dependent Cytosolic GPX-like Proteins in Euglena gracilis” (Biomolecules, 2024).

How the values were obtained:
rEgGPXL-2 = tested on: T1, rEgGPXL-2; test: NADPH oxidation at […] nm, thioredoxin/thioredoxin reductase coupled; format: biochemical, Euglena gracilis; conditions: 6 µM yeast Trx-2 as electron donor, 0.3 µM yeast Trx reductase, 0.2 mM NADPH, 20 mM HEPES-NaOH pH 7.5; t-BOOH up to 0.04 mM
T1 construct: gene EgGPXL-2; full-length ORF, 173 residues, no signal peptide, pCold-II 6xHis tag, E. coli BL21, TALON purified, about 18-20 kDa; animal-type GPX, Cys-45 in place of Sec; cDNA 737 bp

rEgGPXL-4 = tested on: T2, rEgGPXL-4; test: as above; format: biochemical, Euglena gracilis; conditions: 6 µM yeast Trx-2 as electron donor, 0.3 µM yeast Trx reductase, 0.2 mM NADPH, 20 mM HEPES-NaOH pH 7.5; t-BOOH up to 0.04 mM
T2 construct: gene EgGPXL-4; full-length ORF, 159 residues, no signal peptide, pCold-II 6xHis tag, E. coli BL21, TALON purified, about 18-20 kDa; plant-type GPX; cDNA 787 bp; printed Cys-64, Gln-66, Phe-67, Glu-71, Gly-100, Asn-126, Phe-127, Lys-129, Gly-136

CC(C)(C)OO [t-BOOH]
Km (rEgGPXL-2): 28.5 ± 3.1 µM | Km (rEgGPXL-4): 38.5 ± 1.6 µM
